This note sets out measurements from patent publication US10351500B2, “Method of using of dihydro-resveratrol or its stilbenoid derivatives and/or chemical variants as antimicrobial agents” (Hong Kong Baptist University, priority 2015, dated 2019).

Experiment [1] is described as follows: ABTS radical decolorization assay (antioxidant capacity). The settings on record: 15 min, 734 nm. The class given is biochemical.
The test system of experiment [2] is Trichophyton mentagrophytes. Description: anti-fungal growth inhibition, T. mentagrophytes. The class given is cell-based. The settings on record: Trichophyton mentagrophytes, 168 h, T. mentagraphytes, one week, 30° C., OD 510 nm; for inhibition at 25 µM: read-out: Inhibition rate (25 μM); for inhibition at 50 µM: read-out: Inhibition rate (50 μM); for inhibition at 100 µM: read-out: Inhibition rate (100 μM). On the procedure:
(§1) Evaluation of anti-fungal activity. In a single well of the 96-well microplate, 10 μL of the testing compound is added into 190 μL of growth medium (Difco™ YM) containing an overnight culture of Trichophyton rubrum or Trichophyton mentagrophytes at a density of approximately 5×10^5 CFU. The testing compounds include dihydro-resveratrol and DR1 to DR11. Wells incubated with 10 μL 0.5% DMSO only (i.e. no testing compound) are served as the experimental control of fungal growth whilst those incubated with growth medium only (i.e. no fungi) are served as the negative control. […] The percentage of growth inhibition of T. mentagrophytes by the different concentrations of testing compounds is shown in Table 10 whilst the percentage of growth inhibition of T. rubrum is shown in Table 11. The images of T. mentagrophytes culture are captured post treatment of dihydro-resveratrol (100 μM) and DR8 (100 μM) when compared to the growth of experimental control and negative control (FIG. 30).

The subject of experiment [3] is Trichophyton rubrum. Description: anti-fungal growth inhibition, T. rubrum. The class given is cell-based. The settings on record: Trichophyton rubrum, 168 h, T. rubrum, one week, 30° C., OD 510 nm; for inhibition at 25 µM: read-out: Inhibition rate (25 μM); for inhibition at 50 µM: read-out: Inhibition rate (50 μM); for inhibition at 100 µM: read-out: Inhibition rate (100 μM). Here is the method:
as §1

The subject of experiment [4] is Streptococcus mutans. Description: anti-bacterial growth inhibition, S. mutans. The class given is cell-based. The settings on record: Streptococcus mutans, S. mutans, 10 hours, 30° C., OD 600 nm; for inhibition at 25 µM: read-out: Inhibition rate (25 μM); for inhibition at 50 µM: read-out: Inhibition rate (50 μM); for inhibition at 100 µM: read-out: Inhibition rate (100 μM). Here is the method: (§2) Evaluation of anti-bacterial activity. In a single well of the 96-well microplate, 10 μL of the testing compound is added into 190 μL of growth medium growth medium (BBL™ Brain Heart Infusion) containing an overnight culture of Streptococcus mutans or Streptococcus sobrinus at a density of approximately 5×10^5 CFU. The testing compounds include dihydro-resveratrol and DR1 to DR11. Wells incubated with 10 μL 0.5% DMSO only (i.e. no testing compound) are served as the experimental control of bacterial growth whilst those incubated with growth medium only (i.e. no bacteria) are served as the negative control. […] The percentage of growth inhibition of S. mutans by the different concentrations of testing compounds is shown in Table 12 whereas the percentage of growth inhibition of S. sobrinus is shown in Table 13. The images of S. mutans culture are captured post treatment of dihydro-resveratrol (100 μM) and DR8 (100 μM) when compared to the growth of experimental control and negative control (FIG. 31).

Experiment [5] has as its system Streptococcus sobrinus. Description: anti-bacterial growth inhibition, S. sobrinus. Format: cell-based. The settings on record: Streptococcus sobrinus, S. sobrinus, 10 hours, 30° C., OD 600 nm; for inhibition at 25 µM: read-out: Inhibition rate (25 μM); for inhibition at 50 µM: read-out: Inhibition rate (50 μM); for inhibition at 100 µM: read-out: Inhibition rate (100 μM). Here is the method:
as §2

Take `O=C(Oc1ccc(CCc2cc(OC(=O)c3ccc(Cl)cc3)cc(OC(=O)c3ccc(Cl)cc3)c2)cc1)c1ccc(Cl)cc1` [DR5]: the “Trolox equivalent (mg), antioxidant capacity” value (“Trolox equivalent (mg)” for short) in experiment [1] came out at 0 mg. In addition, the inhibition at 25 µM is 3.01% in experiment [2], 0.71% in experiment [3], 2.67% in experiment [4] and 12.2% in experiment [5]. For the same compound, the inhibition at 50 µM in experiment [2] amounted to 6.93%; in experiment [3], 4.25%; in experiment [4], 8.35%; in experiment [5], 26.2%. In addition, the inhibition at 100 µM is 14.1% in experiment [2], 5.78% in experiment [3], 2.22% in experiment [4] and 18.6% in experiment [5].
With `CCCOc1ccc(CCc2cc(OCCC)cc(OCCC)c2)cc1` [DR2], the “Trolox equivalent (mg)” value in experiment [1] is on record as 30.178 mg. The inhibition at 25 µM in experiment [2] turned out to be 4.72%; in experiment [3], 14.1%; in experiment [4], 0.04%; in experiment [5], 6.33%. Moreover, the inhibition at 50 µM in experiment [2] amounted to 9.81%; in experiment [3] it was 18.3%; in experiment [4] it was 3.62%; in experiment [5] it was 19.9%. Besides, the inhibition at 100 µM turned out to be 33.7% in experiment [2], 37.8% in experiment [3], 3.65% in experiment [4] and 19% in experiment [5].
Turning to `O=C(Oc1ccc(CCc2cc(OC(=O)C3CCCC3)cc(OC(=O)C3CCCC3)c2)cc1)C1CCCC1` [DR9], the “Trolox equivalent (mg)” value in experiment [1] is recorded as 0 mg. Also, the inhibition at 25 µM was found to be 2.19% in experiment [2], 7.05% in experiment [3], 0.68% in experiment [4] and 14.3% in experiment [5]. Also, the inhibition at 50 µM is 14.7% in experiment [2], 2.57% in experiment [3], 6.36% in experiment [4] and 0.13% in experiment [5]. The inhibition at 100 µM came to 25.9% in experiment [2], 1.5% in experiment [3], 8.39% in experiment [4] and 9.87% in experiment [5].
Take `C=CCOc1ccc(CCc2cc(OCC=C)cc(OCC=C)c2)cc1` [DR3]: the “Trolox equivalent (mg)” value in experiment [1] is 119.325 mg. Also, the inhibition at 25 µM was determined as 4.64% in experiment [2], 4.55% in experiment [3], 4.18% in experiment [4] and 11.7% in experiment [5]. In addition, the inhibition at 50 µM in experiment [2] turned out to be 4.77%; in experiment [3], 4.25%; in experiment [4] it was 2.61%; in experiment [5] it was 24.2%. The inhibition at 100 µM in experiment [2] amounted to 20.1%; in experiment [3], 22.3%; in experiment [4], 7.05%; in experiment [5], 21.1%.
Turning to `CCOC(=O)COc1ccc(CCc2cc(OCC(=O)OCC)cc(OCC(=O)OCC)c2)cc1` [DR1], the “Trolox equivalent (mg)” value in experiment [1] came to 105.736 mg. Also, the inhibition at 25 µM in experiment [2] was 4.33%; in experiment [3], 3.25%; in experiment [4], 2.31%; in experiment [5], 9.96%. For the same compound, the inhibition at 50 µM in experiment [2] was found to be 11.2%; in experiment [3], 1.15%; in experiment [4], 8.55%; in experiment [5], 27.7%. Besides, the inhibition at 100 µM in experiment [2] worked out at 36.4%; in experiment [3] it was 22.6%; in experiment [4] it was 4.78%; in experiment [5] it was 14.2%.
Consider `CCCC(=O)Oc1ccc(CCc2cc(OC(=O)CCC)cc(OC(=O)CCC)c2)cc1` [DR4], for which the “Trolox equivalent (mg)” value in experiment [1] is on record as 94.277 mg. Also, the inhibition at 25 µM in experiment [2] stood at 6.03%; in experiment [3], 11.2%; in experiment [4] it was 6.64%; in experiment [5], 7.35%. The inhibition at 50 µM was determined as 10.4% in experiment [2], 16.6% in experiment [3], 3.99% in experiment [4] and 20.6% in experiment [5]. The inhibition at 100 µM was 32.6% in experiment [2], 36.1% in experiment [3], 6.35% in experiment [4] and 18.1% in experiment [5].
